“Also recorded” adds a separate entry of the source.
Tested on: 80 cancer cell lines
Assay: Omniscreen cancer cell line panel, CellTiter-Glo
Assay type: cell-based
Settings: 9 dose levels from 80 μM, 72 hours
Method: The effect of C25-140 on cell viability of 80 cancer cell lines using the CellTiter-Glo luminescent cell viability assay was conducted at CrownBioscience Inc. at the testing facility in Beijing. Here, 80 selected cell lines were cultured in media supplemented with 10-15% FBS, in the temperature of 37° C., 5% CO2 and 95% humidity. Culture medium was purchased from GIBCO or Sigma, USA. The cells were treated with C25-140 in 9 dose levels starting at 80 μM with 3.16-fold serial dilutions. Cisplatin served as a reference control and started with a top working concentration of 100 μM. Test samples were incubated for 72 hours and cell viability was measured by the CellTiter-Glo assay.

Cc1nn(-c2ccc3nnc(C)n3n2)c(C)c1CCC(=O)N1CCC(Cc2ccccc2)CC1 [Example C25-140, 1-(4-Benzylpiperidin-1-yl)-3-(3,5-dimethyl-1-(3-methyl-[1,2,4]-triazolo-[4,3-b]-pyridazin-6-yl)-1H-pyrazol-4-yl)-propan-1-one]
viability of control cell lines HS-5 and MCF 10A: not affected at all
viability of cancer cell lines (78 cancer cell lines): major effect is on cancer cells of blood origin; also recorded: Various cancer cell lines died; also recorded: Major effects were visible in cancer cells of blood origin

Source: patent US12240854B2, “TRAF 6 inhibitors” (Helmholtz Zentrum München - Deutsches Forschungszentrum für …, priority 2018, dated 2025)
